Assays:
[1] = 100 kPa, Liquid; for viscosity: Capillary tube (Ostwald / Ubbelohde) method; for mass density: Vibrating tube method
[2] = relative permittivity at various frequencies (dimensionless); settings: 100 kPa, Liquid, Frequency=30 MHz, Parallel plate capacitor
[3] = refractive index (Na D-line) (dimensionless); settings: 100 kPa, Liquid, Standard Abbe refractometry
[4] = refractive index (Na D-line) (dimensionless); xn = mol fraction of the nth substance listed; settings: 100 kPa, Liquid, Standard Abbe refractometry, x1 = 1
[5] = relative permittivity at various frequencies (dimensionless); xn = mol fraction of the nth substance listed; settings: 100 kPa, Liquid, Frequency=30 MHz, Parallel plate capacitor, x1 = 1
[6] = xn = mol fraction of the nth substance listed; settings: 100 kPa, Liquid, x1 = 1; for viscosity: Capillary tube (Ostwald / Ubbelohde) method; for mass density: Vibrating tube method

NC1CCCCC1 [cyclohexylamine]
Settings	mass density, [1] [kg/m3]	refractive index, [3]	relative permittivity, [2]	viscosity, [1] [mPa·s]
293.15 K	866.86	1.45934	4.65	2.142
298.15 K	862.315	1.45663	4.56	1.908
303.15 K	857.774	1.45325	4.47	1.697

CO [methanol]
Settings	mass density, [1] [kg/m3]	refractive index, [3]	relative permittivity, [2]	viscosity, [1] [mPa·s]
293.15 K	791.414	1.32866	33.6	0.585
298.15 K	786.716	1.32682	32.62	0.545
303.15 K	782.032	1.32444	31.67	0.508

CO [methanol] + NC1CCCCC1
Settings	mass density, [6] [kg/m3]	refractive index, [4]	relative permittivity, [5]	viscosity, [6] [mPa·s]
293.15 K	791.414	1.32866	33.6	0.585
298.15 K	786.716	1.32682	32.62	0.545
303.15 K	782.032	1.32444	31.67	0.508

Reference: the NIST ThermoML archive (doi:10.1016/j.tca.2016.03.002)
